Measured values taken from patent publication US20100239523A1 (priority 2007, published 2010).

Key:
human TLR4 = molecular target: T1, human TLR4 (Homo sapiens, UniProt O00206); format: cell-based
T1 construct: host or cells: HEK 293

[1] = tested on: morphine analgesia in rats; experiment: Potentiation of intrathecal morphine analgesia, Hargreaves test; format: in vivo, rat; settings: about 20 μg co-administered with morphine intrathecally, FIG. 6B

T1 sequence (O00206 24-839): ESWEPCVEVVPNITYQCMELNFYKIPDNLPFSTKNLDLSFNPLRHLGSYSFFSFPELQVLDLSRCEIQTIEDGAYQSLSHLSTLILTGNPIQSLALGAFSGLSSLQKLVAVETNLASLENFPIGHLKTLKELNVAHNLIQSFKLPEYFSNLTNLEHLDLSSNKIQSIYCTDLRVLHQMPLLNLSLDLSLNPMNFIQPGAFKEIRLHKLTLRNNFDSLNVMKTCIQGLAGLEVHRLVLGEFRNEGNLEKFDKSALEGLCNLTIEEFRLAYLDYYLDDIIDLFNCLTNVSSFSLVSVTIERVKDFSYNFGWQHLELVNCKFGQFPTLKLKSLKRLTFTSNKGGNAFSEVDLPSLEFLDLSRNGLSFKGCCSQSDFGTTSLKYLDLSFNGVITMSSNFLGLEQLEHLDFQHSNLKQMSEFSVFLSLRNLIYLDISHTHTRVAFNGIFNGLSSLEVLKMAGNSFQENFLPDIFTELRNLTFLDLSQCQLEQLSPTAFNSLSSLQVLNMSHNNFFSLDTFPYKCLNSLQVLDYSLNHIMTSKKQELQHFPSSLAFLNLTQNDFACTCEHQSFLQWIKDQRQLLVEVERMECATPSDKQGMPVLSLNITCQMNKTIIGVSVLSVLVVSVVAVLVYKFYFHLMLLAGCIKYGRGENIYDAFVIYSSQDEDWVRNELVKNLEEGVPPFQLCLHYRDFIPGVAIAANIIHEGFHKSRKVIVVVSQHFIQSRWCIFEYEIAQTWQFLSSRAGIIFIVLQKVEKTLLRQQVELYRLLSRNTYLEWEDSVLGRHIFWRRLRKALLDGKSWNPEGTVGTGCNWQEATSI
T1 sequence (Q9Y6Y9 17-160 partner limits assumed): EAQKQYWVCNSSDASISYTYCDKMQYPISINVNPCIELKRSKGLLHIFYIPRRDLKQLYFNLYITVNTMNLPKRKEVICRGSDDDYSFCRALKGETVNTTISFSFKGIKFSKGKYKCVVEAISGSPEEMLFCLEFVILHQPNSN

Structure (SMILES) | TLR4 agonism (human TLR4) | potentiation of morphine analgesia [1]
CCC(=O)C(CC(C)N(C)C)(c1ccccc1)c1ccccc1 (centres unmarked) [methadone] | TLR4 agonists | –
CN1CC[C@]23c4c5ccc(O)c4O[C@H]2[C@@H](O)C=C[C@H]3[C@H]1C5 [morphine] | TLR4 agonists | –
COc1ccc2c3c1O[C@H]1C(=O)CC[C@@]4(O)[C@@H](C2)N(C)CC[C@]314 [oxycodone] | TLR4 agonists | –
CCOC(=O)C1(c2ccccc2)CCN(C)CC1 [pethadine/meperidine] | TLR4 agonists | –
O=c1c(O)c(-c2ccc(O)c(O)c2)oc2cc(O)cc(O)c12 [quercetin] | – | significant potentiation
